Earlier results on 28 molecules are cited in US20130338095A1, “Chemosensory Receptor Ligand-Based Therapies” (ELCELYX THERAPEUTICS, INC., priority 2010, published 2013).

The data set has as its target T1, sweet receptor (Homo sapiens, UniProt Q7RTX0+Q8TE23).
T1 sequence (Q8TE23 20-839): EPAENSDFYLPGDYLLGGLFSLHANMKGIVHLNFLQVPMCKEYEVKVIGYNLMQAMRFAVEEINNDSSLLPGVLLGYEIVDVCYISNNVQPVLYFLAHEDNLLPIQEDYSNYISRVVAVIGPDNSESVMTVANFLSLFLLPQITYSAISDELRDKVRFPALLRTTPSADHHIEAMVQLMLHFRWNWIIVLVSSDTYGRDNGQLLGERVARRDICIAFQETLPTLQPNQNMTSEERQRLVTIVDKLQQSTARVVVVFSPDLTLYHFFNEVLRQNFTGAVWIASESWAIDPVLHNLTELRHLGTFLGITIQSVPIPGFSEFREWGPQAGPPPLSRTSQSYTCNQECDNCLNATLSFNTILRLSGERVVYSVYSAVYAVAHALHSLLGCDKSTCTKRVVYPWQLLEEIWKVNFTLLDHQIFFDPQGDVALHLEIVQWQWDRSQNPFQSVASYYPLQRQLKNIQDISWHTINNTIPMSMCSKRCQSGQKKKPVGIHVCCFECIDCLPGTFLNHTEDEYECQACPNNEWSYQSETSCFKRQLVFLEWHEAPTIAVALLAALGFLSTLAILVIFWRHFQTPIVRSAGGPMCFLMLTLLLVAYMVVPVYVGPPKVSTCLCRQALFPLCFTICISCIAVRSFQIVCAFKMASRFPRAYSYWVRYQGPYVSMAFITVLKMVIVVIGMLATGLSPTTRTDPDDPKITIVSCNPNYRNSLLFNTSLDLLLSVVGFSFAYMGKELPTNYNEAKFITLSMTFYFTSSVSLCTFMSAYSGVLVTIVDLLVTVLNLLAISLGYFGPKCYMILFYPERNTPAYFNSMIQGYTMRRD
T1 sequence (Q7RTX0 21-852): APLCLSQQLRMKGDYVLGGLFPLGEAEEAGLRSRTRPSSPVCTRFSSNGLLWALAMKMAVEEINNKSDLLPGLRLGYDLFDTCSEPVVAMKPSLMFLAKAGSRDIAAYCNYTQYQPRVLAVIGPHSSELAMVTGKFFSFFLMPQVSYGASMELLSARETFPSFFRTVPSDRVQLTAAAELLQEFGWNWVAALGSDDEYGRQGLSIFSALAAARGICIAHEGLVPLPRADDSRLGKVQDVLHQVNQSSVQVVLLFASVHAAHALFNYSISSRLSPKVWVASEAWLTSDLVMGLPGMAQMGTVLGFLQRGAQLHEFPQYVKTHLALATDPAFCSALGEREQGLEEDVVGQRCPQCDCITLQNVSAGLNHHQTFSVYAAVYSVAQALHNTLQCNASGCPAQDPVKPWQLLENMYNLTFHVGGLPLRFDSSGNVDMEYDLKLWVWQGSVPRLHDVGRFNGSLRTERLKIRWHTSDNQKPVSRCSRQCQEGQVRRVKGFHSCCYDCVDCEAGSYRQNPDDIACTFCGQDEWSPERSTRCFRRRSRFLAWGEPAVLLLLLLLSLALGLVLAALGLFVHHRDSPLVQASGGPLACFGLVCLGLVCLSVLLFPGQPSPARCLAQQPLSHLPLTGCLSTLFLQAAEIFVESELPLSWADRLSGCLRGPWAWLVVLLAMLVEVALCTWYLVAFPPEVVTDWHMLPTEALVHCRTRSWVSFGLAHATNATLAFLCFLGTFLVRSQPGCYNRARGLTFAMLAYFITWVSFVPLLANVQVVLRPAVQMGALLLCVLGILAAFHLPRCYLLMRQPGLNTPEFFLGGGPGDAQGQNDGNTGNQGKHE
The settings on record: relative sweetness on a weight comparison basis to sucrose (=1.0).
In the case of `COc1c(O)cc2c(c1O)C(=O)[C@H](OC(C)=O)[C@@H](c1ccc(O)c(O)c1)O2` [(2R,3R)-2,3-Dihydro-5,7,3′,4′-tetrahydroxy-6-methoxy-3-O-acetylflavonol], the Sweetness/potency is 25.
Take `COc1c(O)cc2c(c1O)C(=O)[C@H](O)[C@@H](c1ccc(O)c(O)c1)O2` [(2R,3R)-2,3-Dihydro-5,7,3′,4′-tetrahydroxy-6-methoxyflavonol]: the Sweetness/potency was 15.
Consider `COc1c(O)cc2c(c1O)C(=O)[C@H](OC(C)=O)[C@@H](c1ccc(O)cc1)O2` [(2R,3R)-2,3-Dihydro-5,7,4′-trihydroxy-6-methoxy-3-O-acetylflavonol], for which the Sweetness/potency is 20.
For the molecule `CC(=O)O[C@H]1C(=O)c2c(O)cc(O)cc2O[C@@H]1c1ccc(O)c(O)c1` [(2R,3R)-Dihydroquercetin 3-O-acetate], the Sweetness/potency is recorded as 80.
On to `CC(C)=CCC[C@](C)(O)[C@@H]1CCC(C)=CC1=O` [(+)-Hernandulcin], for which the Sweetness/potency is listed as 1,500.
As to `CC1=CC[C@@H]([C@@H](C)[C@H]2CC[C@@]3(C)[C@@H]4CC[C@H]5[C@](C)(C(=O)O)[C@@H](O[C@@H]6O[C@H](CO)[C@@H](O)[C@H](O)[C@H]6O)CC[C@@]56C[C@@]46CC[C@]23C)OC1=O` [Abrusoside A], the Sweetness/potency is reported as 30.
As to `COC(=O)[C@H]1O[C@@H](O[C@H]2[C@H](O[C@H]3CC[C@]45C[C@]46CC[C@]4(C)[C@@H]([C@H](C)[C@@H]7CC=C(C)C(=O)O7)CC[C@@]4(C)[C@@H]6CC[C@H]5[C@]3(C)C(=O)O)O[C@H](CO)[C@@H](O)[C@@H]2O)[C@H](O)[C@@H](O)[C@@H]1O` [Abrusoside B], the Sweetness/potency is recorded as 100.
As for `CC1=CC[C@@H]([C@@H](C)[C@H]2CC[C@@]3(C)[C@@H]4CC[C@H]5[C@](C)(C(=O)O)[C@@H](O[C@@H]6O[C@H](CO)[C@@H](O)[C@H](O)[C@H]6O[C@@H]6O[C@H](CO)[C@@H](O)[C@H](O)[C@H]6O)CC[C@@]56C[C@@]46CC[C@]23C)OC1=O` [Abrusoside C], the Sweetness/potency is 50.
Consider `CC1=CC[C@@H]([C@@H](C)[C@H]2CC[C@@]3(C)[C@@H]4CC[C@H]5[C@](C)(C(=O)O)[C@@H](O[C@@H]6O[C@H](CO)[C@@H](O)[C@H](O)[C@H]6O[C@@H]6O[C@H](C(=O)O)[C@@H](O)[C@H](O)[C@H]6O)CC[C@@]56C[C@@]46CC[C@]23C)OC1=O` [Abrusoside D], for which the Sweetness/potency is 75.
For the molecule `CC1(C)C[C@H]2C3=CC[C@@H]4[C@@]5(C)CC[C@H](O[C@@H]6O[C@H](CO[C@@H]7OC[C@H](O)[C@H](O)[C@H]7O[C@@H]7OC[C@@H](O)[C@H](O)[C@H]7O)[C@@H](O)[C@H](O)[C@H]6O)C(C)(C)[C@@H]5CC[C@@]4(C)[C@]3(C)C[C@@H](O)[C@@]23C[C@@H]1OC3=O` [Albiziasaponin A], the Sweetness/potency is reported as 5.
With `CC1(C(=O)O)CCC2(C)CCC3(C)C(=CC(=O)C4C5(C)CCC(OC6OC(C(=O)O)C(O)C(O)C6OC6OCC(O)(CO)C6O)C(C)(C)C5CCC43C)C2C1` (stereo not shown) [Apioglycyrrhizin], the Sweetness/potency is on record as 300.
As for `CC1(C)[C@@H](O[C@H]2O[C@H](C(=O)O)[C@@H](O)[C@H](O)[C@H]2O[C@@H]2OC[C@H](O)[C@H](O)[C@H]2O)CC[C@]2(C)[C@H]3C(=O)C=C4[C@@H]5C[C@@](C)(C(=O)O)CC[C@]5(C)CC[C@@]4(C)[C@]3(C)CC[C@@H]12` [Araboglycyrrhizin], the Sweetness/potency is reported as 150.
For `C/C(=C\CC[C@@H](C)[C@H]1CC[C@@]2(C)[C@@H]3CC=C4[C@@H](CC[C@H](O[C@@H]5O[C@H](CO)[C@@H](O)[C@H](O)[C@H]5O)C4(C)C)[C@]3(C)[C@H](O)C[C@]12C)CO[C@@H]1O[C@H](CO[C@@H]2O[C@H](CO)[C@@H](O)[C@H](O)[C@H]2O)[C@@H](O)[C@H](O)[C@H]1O` [Carnosifloside VI], the Sweetness/potency was 77.
As to `COc1ccc(C2Oc3cc(O)cc(O)c3C(=O)C2OC(C)=O)cc1O` (stereo not shown) [Dihydroquercetin 3-O-acetate 4′-methyl ether], the Sweetness/potency is given as 400.
In the case of `C=C1C[C@@]23CC[C@H]4[C@@](C)(CCC[C@@]4(C)C(=O)O[C@@H]4O[C@H](CO)[C@@H](O)[C@H](O)[C@H]4O)[C@@H]2CC[C@]1(O[C@@H]1O[C@H](CO)[C@@H](O)[C@H](O)[C@H]1O[C@@H]1O[C@@H](C)[C@H](O)[C@@H](O)[C@H]1O)C3` [Dulcoside A], the Sweetness/potency is on record as 30.
For `C/C(=C\CO)CCC1=C(C=O)CC(OC2OCC(O)C(O)C2O)C2C(C)(CO)CCCC12C` (stereo not shown) [Gaudichaudioside A], the Sweetness/potency was 55.
For `Oc1cc2c(cc1O)[C@@H]1c3ccc(O)c(O)c3OC[C@]1(O)C2` [Hematoxylin], the Sweetness/potency was 120.
For `C/C(=C\CC/C(C)=C/CO[C@@H]1O[C@H](CO)[C@@H](O)[C@H](O[C@@H]2O[C@@H](C)[C@H](O)[C@@H](O)[C@H]2O)[C@H]1O[C@@H]1O[C@@H](C)[C@H](O)[C@@H](O)[C@H]1O)CC/C=C(\C)CO[C@@H]1O[C@H](CO)[C@@H](O)[C@H](O[C@@H]2O[C@@H](C)[C@H](O)[C@@H](O)[C@H]2O)[C@H]1O[C@@H]1O[C@@H](C)[C@H](O)[C@@H](O)[C@H]1O` [Mukurozioside IIb], the Sweetness/potency result is recorded as “ca. 1”.
`C[C@@H]1O[C@@H](O[C@H]2[C@H](Oc3cc(O)c(C(=O)CCc4ccc(O)cc4)c(O)c3)O[C@H](CO)[C@@H](O)[C@@H]2O)[C@H](O)[C@H](O)[C@H]1O` [Naringin dihydrochalcone]: the Sweetness/potency was 300.
For the molecule `COc1ccc(CCC(=O)c2c(O)cc(O[C@@H]3O[C@H](CO)[C@@H](O)[C@H](O)[C@H]3O[C@@H]3O[C@@H](C)[C@H](O)[C@@H](O)[C@H]3O)cc2O)cc1O` [Neohesperidin dihydrochalcone], the Sweetness/potency is given as 1,000.
`C[C@@H]1O[C@@H](O[C@H]2O[C@@H]([C@@H](C)C3CC[C@@H]4[C@H]5CC(=O)[C@@H]6C[C@H](O[C@@H]7O[C@H](CO)[C@@H](O)[C@H](O)[C@H]7O[C@@H]7O[C@@H](C)[C@H](O)[C@@H](O)[C@H]7O)CC[C@]6(C)[C@@H]5CC[C@]34C)CC[C@@H]2C)[C@H](O)[C@H](O)[C@H]1O` (stereo partly shown) [Osladin]: the Sweetness/potency is recorded as 500.
As to `CC1(C(=O)O)C=C2C3CCC4C5(CO)CCC(OC6OC(C(=O)O)C(O)C(O)C6OC6OC(C(=O)O)C(O)C(O)C6O)C(C)(C)C5CCC4(C)C3(C)CCC2(C)CC1` (stereo not shown) [Periandrin III], the Sweetness/potency is reported as 92.
In the case of `CC1(C)[C@@H](O[C@@H]2O[C@H](C(=O)O)[C@@H](O)[C@H](O)[C@H]2O[C@@H]2O[C@H](C(=O)O)[C@@H](O)[C@H](O)[C@H]2O)CC[C@]2(C=O)[C@H]3CC[C@@H]4C5=C[C@@](C)(C(=O)O)CC[C@]5(C)CC[C@@]4(C)[C@]3(C)CC[C@@H]12` [Periandrin I], the Sweetness/potency is recorded as 90.
With `CC1(C(=O)O)C=C2C3CCC4C5(C=O)CCC(OC6OC(C(=O)O)C(O)C(O)C6OC6OCC(O)C(O)C6O)C(C)(C)C5CCC4(C)C3(C)CCC2(C)CC1` (stereo not shown) [Periandrin V], the Sweetness/potency is recorded as 220.
Turning to `COc1ccc([C@H]2Cc3cccc(O)c3C(=O)O2)cc1O` [Phyllodulcin], the Sweetness/potency is 400.
For the molecule `C=C(C)C1CCC2(C)C(CC(OC3OCC(O)C(O)C3O)C3C(C(C)(O)C/C=C/C(C)(C)O)CCC32C)C1(C)CCC(=O)O` (stereo not shown) [Pterocaryoside B], the Sweetness/potency was 100.
In the case of `Oc1ccc([C@H]2Oc3c(c(O)cc4c3[C@H]3c5c(O)cc(O)cc5O[C@@](c5ccc(O)cc5)(O4)[C@@H]3O)[C@H](c3c(O)cc(O)c4c3O[C@H](c3ccc(O)cc3)[C@@H](O)C4)[C@H]2O)cc1` [Selligueain A], the Sweetness/potency was 35.
Regarding `C=C1C[C@@]23CC[C@H]4[C@@](C)(CCC[C@@]4(C)C(=O)O)[C@@H]2CC[C@]1(O[C@@H]1O[C@H](CO)[C@@H](O)[C@H](O)[C@H]1O[C@@H]1O[C@H](CO)[C@@H](O)[C@H](O)[C@H]1O)C3` [Steviolbioside], the Sweetness/potency is 90.
